Data reported in ChEMBL document CHEMBL1130359, “In vivo immunosuppressive activity of some cyclolignans” (Bioorg Med Chem Lett, 1997).
≈ marks a conversion by molar mass, not a printed value.

Legend:
Mus musculus [1] = experiment: Tested in vivo for immunosuppressive activity in mouse using allogenic skin grafting technique(SG); weight lost at a dose of 0.15 mg/kg; type: functional
Mus musculus [2] = experiment: Tested in vivo for immunosuppressive activity in mouse using graft vs. Host rejection technique(GVHR); % suppression at a dose of 15.0 mg/kg.; type: functional
Mus musculus [3] = experiment: Tested in vivo for immunosuppressive activity in mouse using graft vs. Host rejection technique(GVHR); spleen index at a dose of 1.5 mg/kg; type: functional
Mus musculus [4] = experiment: Tested in vivo for immunosuppressive activity in mouse using graft vs. Host rejection technique(GVHR); spleen weight normalized to D8 body weight at a dose of 0.15 mg/kg; type: functional
[5] = Non-cytotoxic IMS activity (ratio LcV/MLR) was determined; type: functional
Mus musculus [6] = experiment: Tested in vivo for immunosuppressive activity in mouse using graft vs. Host rejection technique(GVHR); spleen index at a dose of 15.0 mg/kg; type: functional
Mus musculus [7] = experiment: Tested in vivo for immunosuppressive activity in mouse using allogenic skin grafting technique(SG); mean graft survival at a dose of 0.15 mg/kg; type: functional
Mus musculus [8] = experiment: Tested in vivo for immunosuppressive activity in mouse using graft vs. Host rejection technique(GVHR); spleen index at a dose of 0.15 mg/kg; type: functional
Mus musculus [9] = experiment: Tested in vivo for immunosuppressive activity in mouse using graft vs. Host rejection technique(GVHR); body weight at a dose of 0.15 mg/kg.; type: functional
Mus musculus [10] = experiment: Tested in vivo for immunosuppressive activity in mouse using graft vs. Host rejection technique(GVHR); weight at a dose of 15 mg/kg; type: functional
Mus musculus [11] = experiment: Tested in vivo for immunosuppressive activity in mouse using graft vs. Host rejection technique(GVHR); body weight at a dose of 1.5 mg/kg; type: functional
Mus musculus [12] = experiment: Tested in vivo for immunosuppressive activity in mouse using allogenic skin grafting technique(SG); weight at a dose of 1.50 mg/kg; type: functional; conditions: dose 1.5 mg/kg
Mus musculus [13] = experiment: Tested in vivo for immunosuppressive activity in mouse using allogenic skin grafting technique(SG); weight lost at a dose of 1.50 mg/kg; type: functional; conditions: dose 1.5 mg/kg
Mus musculus [14] = experiment: Tested in vivo for immunosuppressive activity in mouse using allogenic skin grafting technique(SG); graft survival relative to cyclophosphamide at a dose of 15.0 mg/kg; type: functional
Mus musculus [15] = experiment: Tested in vivo for immunosuppressive activity in mouse using graft vs. Host rejection technique(GVHR); spleen weight normalized to D8 body weight at a dose of 15.0 mg/kg; type: functional
[16] = Tested in vitro for cytotoxicity against […](LcV) in cells; type: functional
Mus musculus [17] = species on record: Mus musculus; experiment: Tested for immunosuppressive activity in mouse using allogenic MLR method; type: functional, organism-based
Mus musculus [18] = experiment: Tested in vivo for immunosuppressive activity in mouse using allogenic skin grafting technique(SG); mean graft survival at a dose of 15.0 mg/kg.; type: functional
Mus musculus [19] = experiment: Tested in vivo for immunosuppressive activity in mouse using allogenic skin grafting technique(SG); mean graft survival at a dose of 1.5 mg/kg; type: functional
Mus musculus [20] = experiment: Tested in vivo for immunosuppressive activity in mouse using allogenic skin grafting technique(SG); graft survival relative to cyclophosphamide at a dose of 0.15 mg/kg; type: functional
Mus musculus [21] = experiment: Tested in vivo for immunosuppressive activity in mouse using graft vs. Host rejection technique(GVHR);% suppression at a dose of 0.15 mg/kg; type: functional
Mus musculus [22] = experiment: Tested in vivo for immunosuppressive activity in mouse using graft vs. Host rejection technique(GVHR); spleen weight normalized to D8 body weight at a dose of 1.5 mg/kg; type: functional
Mus musculus [23] = experiment: Tested in vivo for immunosuppressive activity in mouse using graft vs. Host rejection technique(GVHR); % suppression at a dose of 1.5 mg/kg; type: functional
Mus musculus [24] = experiment: Tested in vivo for immunosuppressive activity in mouse using graft vs. Host rejection technique(GVHR); body weight at a dose of 15.0 mg/kg; type: functional
Mus musculus [25] = experiment: Tested in vivo for immunosuppressive activity in mouse using allogenic skin grafting technique(SG); weight at a dose of 0.15 mg/kg; type: functional
Mus musculus [26] = experiment: Tested in vivo for immunosuppressive activity in mouse using graft vs. Host rejection technique(GVHR); weight change at a dose of 1.5 mg/kg.; type: functional
Mus musculus [27] = experiment: Tested in vivo for immunosuppressive activity in mouse using graft vs. Host rejection technique(GVHR); weight change at a dose of 15.0 mg/kg; type: functional
Mus musculus [28] = experiment: Tested in vivo for immunosuppressive activity in mouse using allogenic skin grafting technique(SG); graft survival relative to cyclophosphamide at a dose of 1.5 mg/kg; type: functional
Mus musculus [29] = experiment: Tested in vivo for immunosuppressive activity in mouse using allogenic skin grafting technique(SG); weight at a dose of 15 mg/kg; type: functional
Mus musculus [30] = experiment: Tested in vivo for immunosuppressive activity in mouse using graft vs. Host rejection technique(GVHR); weight change at a dose of 0.15 mg/kg; type: functional

COc1cc([C@@H]2c3cc(O)c(O)cc3[C@H](O)[C@H]3COC(=O)[C@H]23)cc(OC)c1OC [6,7-O,O-DEMETHYLENEPODOPHYLLOTOXIN]
Body weight (Mus musculus [1]): 0.7 g | Activity (Mus musculus [2]): 44% | SI (Mus musculus [3]): 1.04 | Spleen weight (Mus musculus [4]): 4.1 g | Ratio [5]: >4885 | SI (Mus musculus [6]): 1.15 | Mean graft survival (Mus musculus [7]): 10 days | SI (Mus musculus [8]): 0.82 | Body weight (Mus musculus [9]): 16.5 g | Body weight (Mus musculus [10]): 17.8 g | Body weight (Mus musculus [11]): 16.8 g | Body weight (Mus musculus [12]): 18.5 g | Body weight (Mus musculus [13]): 1 g | graft survival (Mus musculus [14]): 1.09 days | Spleen weight (Mus musculus [15]): 5.75 g | Cytotoxicity [16]: >27.5 µg/mL | IC50 (Mus musculus [17]): 5.63 ng/mL (≈ 0.014 µM) | Mean graft survival (Mus musculus [18]): 10.7 days | Mean graft survival (Mus musculus [19]): 12.5 days | graft survival (Mus musculus [20]): 1.02 days | Activity (Mus musculus [21]): 167% | Spleen weight (Mus musculus [22]): 5.2 g | Activity (Mus musculus [23]): 85% | Body weight (Mus musculus [24]): 16.3 g | Body weight (Mus musculus [25]): 18.7 g | Weight change (Mus musculus [26]): 2.9% | Weight change (Mus musculus [27]): 1.8% | graft survival (Mus musculus [28]): 1.28 days | Body weight (Mus musculus [29]): 1.6 g | Weight change (Mus musculus [30]): -1.8%
